Source: ChEMBL document CHEMBL1949534, “Two-step bioorthogonal activity-based proteasome profiling using copper-free click reagents: a comparative study” (Bioorg Med Chem, 2012)
The source made the active and inactive calls.

How the values were obtained:
HeLa [1] = assay: Binding affinity to proteasome in human HeLa cells assessed as fluorescence at 100 uM pretreated with azido-BODIPY-epoxomicin for 2 hrs followed by 4 hrs of incubation with compound measured post washing by SDS-PAGE-based Western blot analysis
Proteasome [2] = assay: Binding affinity to proteasome in azido-BODIPY-epoxomicin treated HEK293T cell lysate at 50 uM at 37 degC up to 4 hrs by SDS-PAGE-based fluorescence analysis; format: subcellular; settings: Homo sapiens, HEK-293T
Proteasome [3] = assay: Binding affinity to proteasome in azido-BODIPY-epoxomicin treated HEK293T cell lysates at 50 uM at 0 degC by SDS-PAGE-based fluorescence analysis; format: subcellular; settings: Homo sapiens, HEK-293T
Proteasome [4] = assay: Binding affinity to proteasome in azido-BODIPY-epoxomicin treated HEK293T cell lysates at 5 uM at 37 degC after 2 hrs by SDS-PAGE-based fluorescence analysis; format: subcellular; settings: Homo sapiens, HEK-293T
Proteasome [5] = assay: Binding affinity to proteasome in azido-BODIPY-epoxomicin treated HEK293T cell lysates at 1 to 100 uM after 1 hr by Western blot analysis with streptavidin-HRP; format: subcellular; settings: Homo sapiens, HEK-293T
HeLa [6] = assay: Binding affinity to proteasome in human HeLa cells assessed as fluorescence at 5 uM pretreated with azido-BODIPY-epoxomicin for 2 hrs followed by 4 hrs of incubation with compound measured post washing by SDS-PAGE-based Western blot analysis
Proteasome [7] = assay: Binding affinity to proteasome in azido-BODIPY-epoxomicin treated HEK293T cell lysates at 5 uM at 0 degC by SDS-PAGE-based fluorescence analysis; format: subcellular; settings: Homo sapiens, HEK-293T
Proteasome [8] = assay: Binding affinity to proteasome in azido-BODIPY-epoxomicin treated HEK293T cell lysates at 50 to 100 uM after 1 hr by SDS-PAGE-based fluorescence analysis; format: subcellular; settings: Homo sapiens, HEK-293T
Proteasome [9] = assay: Binding affinity to proteasome in azido-BODIPY-epoxomicin treated HEK293T cell lysates at 5 uM after 1 hr by SDS-PAGE-based fluorescence analysis; format: subcellular; settings: Homo sapiens, HEK-293T
Proteasome [10] = assay: Binding affinity to proteasome in azido-BODIPY-epoxomicin treated HEK293T cell lysates at 0.5 uM at 37 degC after 30 mins by SDS-PAGE-based fluorescence analysis; format: subcellular; settings: Homo sapiens, HEK-293T
HeLa [11] = assay: Binding affinity to proteasome in human HeLa cells assessed as fluorescence at 0.5 uM pretreated with azido-BODIPY-epoxomicin for 2 hrs followed by 4 hrs of incubation with compound measured post washing by SDS-PAGE-based Western blot analysis
Proteasome [12] = assay: Binding affinity to proteasome in azido-BODIPY-epoxomicin treated HEK293T cell lysates at 0.5 uM at 0 degC by SDS-PAGE-based fluorescence analysis; format: subcellular; settings: Homo sapiens, HEK-293T
Proteasome [13] = assay: Binding affinity to proteasome in azido-BODIPY-epoxomicin treated HEK293T cell lysates at 5 uM at 37 degC up to 4 hrs by SDS-PAGE-based fluorescence analysis; format: subcellular; settings: Homo sapiens, HEK-293T

Measured: Activity

COC(=O)c1ccc(C(=O)NCCOCCOCCNC(=O)CCCC[C@@H]2SC[C@@H]3NC(=O)N[C@@H]32)cc1P(c1ccccc1)c1ccccc1
active: HeLa [1] | Proteasome [2] | Proteasome [3]

O=C(CCCC[C@@H]1SC[C@@H]2NC(=O)N[C@@H]21)NCCOCCOCCOCCNC(=O)OC[C@@H]1[C@@H]2CCC#CCC[C@@H]21
active: Proteasome [4] | Proteasome [5] | HeLa [6] | Proteasome [7] | Proteasome [8]

O=C(CCCC[C@@H]1SC[C@@H]2NC(=O)N[C@@H]21)NCCOCCOCCOCCNC(=O)OC1Cc2ccccc2C#Cc2ccccc21 (stereo partly drawn)
active: Proteasome [5] | Proteasome [9] | Proteasome [10] | HeLa [11] | Proteasome [12]

O=C(CCCC[C@@H]1SC[C@@H]2NC(=O)N[C@@H]21)NCCOCCOCCNC(=O)C1(F)C#CCCCCC1 (stereo partly drawn)
active: Proteasome [13] | Proteasome [5] | HeLa [6] | Proteasome [7] | Proteasome [8]
